# Changes are numbered by the printed parent chain. Residues, ends and D or L forms follow the SMILES beside them. *: point of attachment. For = O=C*
# Assays:
# Assay in all cases: Competition binding of fMLFK with WK(FITC)YMVm, flow cytometry on HEK293F cells
# [1] = target: T1, wild-type (WT) and mutant FPR2 (Homo sapiens, UniProt P25090, V160A); conditions: FPR2 V160A; mean ± s.e.m., n=3; SEM
# T1 construct: expressed in transfected cells; host or cells: HEK293F
# T1 sequence (P25090 1-351 V160A): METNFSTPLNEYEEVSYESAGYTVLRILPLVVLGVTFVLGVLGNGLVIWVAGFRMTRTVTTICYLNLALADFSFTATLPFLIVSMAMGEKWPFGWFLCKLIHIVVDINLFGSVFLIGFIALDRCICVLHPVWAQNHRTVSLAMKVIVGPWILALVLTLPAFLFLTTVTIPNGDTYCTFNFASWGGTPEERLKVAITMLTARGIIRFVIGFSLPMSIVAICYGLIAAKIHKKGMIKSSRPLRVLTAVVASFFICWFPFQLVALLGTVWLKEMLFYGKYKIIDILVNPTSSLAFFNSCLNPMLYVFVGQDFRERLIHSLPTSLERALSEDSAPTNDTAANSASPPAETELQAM
# Experimental: (§1) Flag-tagged wild-type and mutant FPR2s were cloned into the pTT5 vector and expressed in HEK293F cells. The cells were harvested, and washed with Hanks’ Balanced Salt Solution (HBSS) buffer supplemented with 0.5% bovine serum albumin and 20 mM HEPES, pH 7.4. The cells were then resuspended in the same buffer to the final concentration of 1 × 10^6 cells per ml. The cell-surface expression was measured as mentioned above. […] Mean fluorescent intensity of each well was then read by a FCM (flow cytometry) reader (Millipore). […] For competitive binding of fMLFK, cells were plated in 96-well plates (100,000 cells per well), and incubated with WK(FITC)YMVm at 4 °C for 1 h. The following concentrations of WK(FITC)YMVm were used: 10 nM (wild type, L81^2.60F, E89G, and V105^3.32A), 30 nM (D281^7.32G), 40 nM (H102^3.29F, V160^4.60A, L268^ECL3A, N285^7.36A, and F292^7.43A), and 100 nM (L164^4.64A and T177A). Then increasing concentrations of fMLFK (100 nM–1 mM) were added, and incubated for another 1 h on ice. Mean fluorescent intensity values were measured by flow cytometry. Data were analyzed using Prism 7.0.
# [2] = target: T2, wild-type (WT) and mutant FPR2 (Homo sapiens, UniProt P25090, N285A); conditions: FPR2 N285A; mean ± s.e.m., n=3; SEM
# T2 construct: expressed in transfected cells; host or cells: HEK293F
# T2 sequence (P25090 1-351 N285A): T1 sequence (P25090 1-351 V160A) with A160V, N285A
# Experimental: as §1
# [3] = target: T3, wild-type (WT) and mutant FPR2 (Homo sapiens, UniProt P25090, D281G); conditions: FPR2 D281G; mean ± s.e.m., n=3; SEM
# T3 construct: expressed in transfected cells; host or cells: HEK293F
# T3 sequence (P25090 1-351 D281G): T1 sequence (P25090 1-351 V160A) with A160V, D281G
# Experimental: as §1
# [4] = target: T4, wild-type (WT) and mutant FPR2 (Homo sapiens, UniProt P25090, L164A); conditions: FPR2 L164A; mean ± s.e.m., n=3; SEM
# T4 construct: expressed in transfected cells; host or cells: HEK293F
# T4 sequence (P25090 1-351 L164A): T1 sequence (P25090 1-351 V160A) with A160V, L164A
# Experimental: as §1
# [5] = target: T5, wild-type (WT) and mutant FPR2 (Homo sapiens, UniProt P25090, F292A); conditions: FPR2 F292A; mean ± s.e.m., n=3; SEM
# T5 construct: expressed in transfected cells; host or cells: HEK293F
# T5 sequence (P25090 1-351 F292A): T1 sequence (P25090 1-351 V160A) with A160V, F292A
# Experimental: as §1
smiles,measurement,setting,value
CSCC[C@H](NC=O)C(=O)N[C@@H](CC(C)C)C(=O)N[C@@H](Cc1ccccc1)C(=O)N[C@@H](CCCCN)C(=O)O [fMLFK] (For-MLFK-OH),"pKi, competition binding",[1],4.16 ± 0.14
same,"pKi, competition binding",[2],3.75 ± 0.16
same,"pKi, competition binding",[3],4.66 ± 0.16
same,"pKi, competition binding",[4],4.16 ± 0.25
same,"pKi, competition binding",[5],4.54 ± 0.11
